# Measured values as given in PubChem BioAssay AID1259407 (Chemical Carcinogenesis Research Information System (CCRIS), 2018).
# Calls of active or inactive are those of the source. How the calls were made is not given here.
# Test system: CCRIS mutagenicity, Ames/micronucleus/aberration tests
# Assay: CCRIS mutagenicity studies
# Excerpt: The CCRIS database contains chemical records with carcinogenicity, mutagenicity, tumor promotion, and tumor inhibition test results. It was developed by the National Cancer Institute (NCI). Data are derived from studies cited in primary journals, current awareness tools, NCI reports, and other sources. Test results have been reviewed by experts in carcinogenesis and mutagenesis.
# CCRIS provides historical information from the years 1985 - 2011. It is no longer updated.
# This is an archive assay for CCRIS mutagenicity studies.
# [1] = Test System: AMES SALMONELLA TYPHIMURIUM, Strain/Indicator: TA98, Metabolic Activation: NONE, Method: STANDARD PLATE
# [2] = Test System: AMES SALMONELLA TYPHIMURIUM, Strain/Indicator: TA100, Metabolic Activation: NONE, Method: STANDARD PLATE
# [3] = Test System: AMES SALMONELLA TYPHIMURIUM, Strain/Indicator: TA100, Metabolic Activation: S-9, Method: STANDARD PLATE
# [4] = Test System: AMES SALMONELLA TYPHIMURIUM, Strain/Indicator: TA98, Metabolic Activation: RAT, LIVER, S-9, AROCLOR 1254, Method: STANDARD PLATE
# [5] = Test System: AMES SALMONELLA TYPHIMURIUM, Strain/Indicator: TA100, Metabolic Activation: RAT, LIVER, S-9, AROCLOR 1254, Method: STANDARD PLATE
# [6] = Test System: AMES SALMONELLA TYPHIMURIUM, Strain/Indicator: TA1535, Metabolic Activation: NONE, Method: STANDARD PLATE
# [7] = Test System: AMES SALMONELLA TYPHIMURIUM, Strain/Indicator: TA1537, Metabolic Activation: NONE, Method: STANDARD PLATE
# [8] = Test System: AMES SALMONELLA TYPHIMURIUM, Strain/Indicator: TA1538, Metabolic Activation: NONE, Method: STANDARD PLATE
compound,measurement,setting,value
Cn1nnc2c(C(N)=O)ncn2c1=O,mutagenic call,"End Point: IN VITRO CHROMOSOMAL ABERRATIONS, Test System: HUMAN HCT116/3-6 CELLS, Metabolic Activation: NONE",active; positive
same,mutagenic call,"End Point: IN VITRO CHROMOSOMAL ABERRATIONS, Test System: HUMAN HCT116 CELLS, Metabolic Activation: NONE",active; positive
same,mutagenic call,"End Point: IN VITRO CHROMOSOMAL ABERRATIONS, Test System: HUMAN MT1 CELLS, Metabolic Activation: NONE",active; positive
same,mutagenic call,"End Point: IN VITRO CHROMOSOMAL ABERRATIONS, Test System: HUMAN TK6 CELLS, Metabolic Activation: NONE",active; positive
Nc1c2ccccc2nc2ccc(O)cc12,mutagenic call,"Test System: AMES SALMONELLA TYPHIMURIUM, Strain/Indicator: TA1537, Metabolic Activation: NONE, Method: PREINCUBATION",active; positive
O=[N+]([O-])c1ccc(/C=C/c2cccc(Cl)c2)cc1,mutagenic call,"Test System: AMES SALMONELLA TYPHIMURIUM, Strain/Indicator: TA98 (NR), Metabolic Activation: NONE, Method: STANDARD PLATE",active; positive
same,mutagenic call,"Test System: AMES SALMONELLA TYPHIMURIUM, Strain/Indicator: TA98 (NR), Metabolic Activation: S-9, Method: STANDARD PLATE",active; positive
same,mutagenic call,[1],active; positive
same,mutagenic call,"Test System: AMES SALMONELLA TYPHIMURIUM, Strain/Indicator: TA98, Metabolic Activation: S-9, Method: STANDARD PLATE",active; positive
same,mutagenic call,"Test System: AMES SALMONELLA TYPHIMURIUM, Strain/Indicator: TA100(NR), Metabolic Activation: NONE, Method: STANDARD PLATE",inactive; negative
same,mutagenic call,"Test System: AMES SALMONELLA TYPHIMURIUM, Strain/Indicator: TA100 (NR), Metabolic Activation: S-9, Method: STANDARD PLATE",active; positive
same,mutagenic call,[2],active; positive
same,mutagenic call,[3],active; positive
O=[N+]([O-])c1cccc(-c2ccccc2)c1O,mutagenic call,"Test System: AMES SALMONELLA TYPHIMURIUM, Strain/Indicator: TA98, Metabolic Activation: NONE, Method: PREINCUBATION",inactive; negative
O=[N+]([O-])c1ccc(Sc2ccccc2)cc1,mutagenic call,"Test System: AMES SALMONELLA TYPHIMURIUM, Strain/Indicator: TA98(1,8-DNP6), Metabolic Activation: NONE, Method: STANDARD PLATE",active; positive
same,mutagenic call,"Test System: AMES SALMONELLA TYPHIMURIUM, Strain/Indicator: TA98(NR), Metabolic Activation: NONE, Method: STANDARD PLATE",inactive; negative
same,mutagenic call,[1],active; positive
same,mutagenic call,[4],active; positive
Clc1ccc2c(c1)C(c1ccccc1)=NCc1nncn1-2,mutagenic call,[1],inactive; negative
same,mutagenic call,[4],inactive; negative
same,mutagenic call,[2],inactive; negative
same,mutagenic call,[5],inactive; negative
same,mutagenic call,"Test System: AMES SALMONELLA TYPHIMURIUM, Strain/Indicator: TA102, Metabolic Activation: NONE, Method: STANDARD PLATE",inactive; negative
same,mutagenic call,"Test System: AMES SALMONELLA TYPHIMURIUM, Strain/Indicator: TA102, Metabolic Activation: RAT, LIVER, S-9, AROCLOR 1254, Method: STANDARD PLATE",inactive; negative
same,mutagenic call,[6],inactive; negative
same,mutagenic call,"Test System: AMES SALMONELLA TYPHIMURIUM, Strain/Indicator: TA1535, Metabolic Activation: RAT, LIVER, S-9, AROCLOR 1254, Method: STANDARD PLATE",inactive; negative
same,mutagenic call,[7],inactive; negative
same,mutagenic call,"Test System: AMES SALMONELLA TYPHIMURIUM, Strain/Indicator: TA1537, Metabolic Activation: RAT, LIVER, S-9, AROCLOR 1254, Method: STANDARD PLATE",inactive; negative
same,mutagenic call,"Test System: E. COLI, Strain/Indicator: WP2 UVRA, Metabolic Activation: NONE, Method: STANDARD PLATE",inactive; negative
same,mutagenic call,"Test System: E. COLI, Strain/Indicator: WP2 UVRA, Metabolic Activation: RAT, LIVER, S-9, AROCLOR 1254, Method: STANDARD PLATE",inactive; negative
Nc1ccccc1SCCSc1ccccc1N,mutagenic call,[4],inactive; negative
same,mutagenic call,[5],active; positive
O=[N+]([O-])c1cccc2csnc12,mutagenic call,[1],active; positive
same,mutagenic call,[2],active; positive
same,mutagenic call,[3],active; positive
same,mutagenic call,[6],active; positive
same,mutagenic call,"Test System: AMES SALMONELLA TYPHIMURIUM, Strain/Indicator: TA1535, Metabolic Activation: S-9, Method: STANDARD PLATE",inactive; negative
same,mutagenic call,[7],active; positive
same,mutagenic call,"Test System: AMES SALMONELLA TYPHIMURIUM, Strain/Indicator: TA1537, Metabolic Activation: S-9, Method: STANDARD PLATE",inactive; negative
OCc1ccc(Br)cc1,mutagenic call,[2],inactive; negative
O=C(Cn1c(=O)sc2ccccc21)OCc1ccccc1,mutagenic call,"Test System: AMES SALMONELLA TYPHIMURIUM, Strain/Indicator: TA97, Metabolic Activation: NONE, Method: STANDARD PLATE",inactive; negative
same,mutagenic call,"Test System: AMES SALMONELLA TYPHIMURIUM, Strain/Indicator: TA97, Metabolic Activation: RAT, LIVER, S-9, DELOR 103, Method: STANDARD PLATE",inactive; negative
same,mutagenic call,[1],inactive; negative
same,mutagenic call,"Test System: AMES SALMONELLA TYPHIMURIUM, Strain/Indicator: TA98, Metabolic Activation: RAT, LIVER, S-9, DELOR 103, Method: STANDARD PLATE",inactive; negative
same,mutagenic call,[2],inactive; negative
same,mutagenic call,"Test System: AMES SALMONELLA TYPHIMURIUM, Strain/Indicator: TA100, Metabolic Activation: RAT, LIVER, S-9, DELOR 103, Method: STANDARD PLATE",inactive; negative
same,mutagenic call,[6],inactive; negative
same,mutagenic call,"Test System: AMES SALMONELLA TYPHIMURIUM, Strain/Indicator: TA1535, Metabolic Activation: RAT, LIVER, S-9, DELOR 103, Method: STANDARD PLATE",inactive; negative
same,mutagenic call,[8],inactive; negative
same,mutagenic call,"Test System: AMES SALMONELLA TYPHIMURIUM, Strain/Indicator: TA1538, Metabolic Activation: RAT, LIVER, S-9, DELOR 103, Method: STANDARD PLATE",inactive; negative
CCN(CC)c1ccc2c(-c3ccc(S(=O)(=O)O)cc3S(=O)(=O)[O-])c3ccc(=[N+](CC)CC)cc-3oc2c1,mutagenic call,"End Point: IN VIVO MICRONUCLEUS, Test System: BONE MARROW POLYCHROMATIC ERYTHROCYTES, Species: MOUSE, Strain/Sex: DDY/MALE, Route: IP",inactive; negative
same,mutagenic call,"Test System: AMES SALMONELLA TYPHIMURIUM, Strain/Indicator: TA98, Metabolic Activation: HAMSTER, LIVER, S-9, AROCLOR 1254 (10%), Method: STANDARD PLATE",active; positive
same,mutagenic call,[1],inactive; negative
same,mutagenic call,"Test System: AMES SALMONELLA TYPHIMURIUM, Strain/Indicator: TA98, Metabolic Activation: RAT, LIVER, S-9, AROCLOR 1254 (10%), Method: STANDARD PLATE",active; positive
same,mutagenic call,"Test System: AMES SALMONELLA TYPHIMURIUM, Strain/Indicator: TA100, Metabolic Activation: HAMSTER, LIVER, S-9, AROCLOR 1254 (10%), Method: STANDARD PLATE",inactive; negative
same,mutagenic call,[2],inactive; negative
same,mutagenic call,"Test System: AMES SALMONELLA TYPHIMURIUM, Strain/Indicator: TA100, Metabolic Activation: RAT, LIVER, S-9, AROCLOR 1254 (10%), Method: STANDARD PLATE",inactive; negative
same,mutagenic call,[8],inactive; negative
same,mutagenic call,"Test System: AMES SALMONELLA TYPHIMURIUM, Strain/Indicator: TA1538, Metabolic Activation: RAT, LIVER, S-9, AROCLOR 1254, Method: STANDARD PLATE",inactive; negative
same,mutagenic call,"Test System: MOUSE LYMPHOMA, Strain/Indicator: L5178Y (TK+/TK-), Metabolic Activation: NONE, Method: SUSPENSION/PLATE",inactive; negative
same,mutagenic call,"Test System: MOUSE LYMPHOMA, Strain/Indicator: L5178Y (TK+/TK-), Metabolic Activation: RAT, LIVER, S-9, AROCLOR 1254, Method: SUSPENSION/PLATE",active; positive
